The values that follow are results of earlier work, collected in patent publication US6191117A, “Methods of producing weight loss and treatment of obesity” (priority 2000, dated 2001).

“Also recorded” adds a separate entry of the source. Like-named read-outs stand apart in the source and are kept apart here.

For data set [1], the system named is NMDA receptor glycine site.
The subject of data set [2] is strychnine-insensitive glycine-binding site.
The subject of data set [3] is NMDA receptor glycine site. The conditions noted are these: bilateral LH injection.
In data set [4] the test system is PFH (perifornical hypothalamus).
A further data set concerns seizure patients. The following applies: monotherapy.
Data set [5] concerns lateral hypothalamus. The following applies: injection into lateral hypothalamus.
For data set [6], the system named is PVN (paraventricular nucleus).
In data set [7] the test system is lateral hypothalamus. The following applies: rats previously given intrahypothalamic injections.
Data set [8] has as its system NMDA receptors. The following applies: in vivo.
The subject of data set [9] is NMDA receptors.
The mark [10] stands for this setting: injection into LH bilaterally for 8 days.

As to `O=C(O)c1cc(O)c2ccc(Cl)cc2n1` [7-CK, 7-chlorokynurenic acid], in data set [1] (7-CK 0.1 nmol), the AMPA-elicited eating entry is listed as “suppressed feeding elicited by KA or AMPA; also recorded: virtually blocking it”, the KA-elicited eating result is “suppressed feeding elicited by KA or AMPA; also recorded: suppressed KA-elicited eating” and the NMDA-elicited eating entry is “enhanced NMDA-elicited eating”. Also, in data set [1] (7-CK 10 nmol), the AMPA-elicited eating result is reported as “suppressed eating elicited by AMPA”, the KA-elicited eating result is on record as “enhancing eating elicited by KA; also recorded: markedly enhanced the KA-elicited response” and the NMDA-elicited eating entry is “blocked NMDA-elicited eating”. In addition, in data set [1] (LH injection before NMDA, satiated rats, dose not stated (high doses)), the NMDA-elicited eating result is “blocked”. For the same molecule, the food intake entry in data set [2] (into intracerebral ventricles or paraventricular nucleus) is given as “dose-dependently increased food intake”. Also, in data set [3], the “eating produced by fasting” value is reported as “effectively suppressed eating produced by fasting”.
With `NCCc1ccc(O)c(O)c1` [dopamine], the “effect on eating in PFH” value in [4] is on record as “feeding-suppressive effects”.
Take `CCCC(CCC)C(=O)O` [valproate]: the “weight gain as monotherapy” value in the data set with seizure patients is “associated with weight gain”.
For the molecule `Nc1nnc(-c2cccc(Cl)c2Cl)c(N)n1` [LTG], where the note is “100 mg and 200 mg, adjunctive therapy and monotherapy”, the “anorexia and nausea incidence” value is listed as 6-15%. For the same molecule, the “effect on body weight” value (12 months or up to 144 weeks) is “no significant effect on body weight”. The “action on sodium channel” value in the data set on sodium channel is recorded as “blocking the sodium channel”.
Consider `Cc1onc(O)c1CC(N)C(=O)O` (racemic) [AMPA, D,L-α-amino-3-hydroxy-5-methyl-isoxazole proprionic acid], for which the “eating response on LH injection” value in the data set with lateral hypothalamus [5] was “elicit a strong dose-dependent eating response; also recorded: elicited eating in a dose-dependent fashion; also recorded: trigger intense eating; also recorded: quantitatively similar eating responses”.
On to `N[C@@H](CCC(=O)O)C(=O)O` [glutamate], for which the “effect on eating in PFH” value in data set [4] is reported as “relatively ineffective”. In addition, in data set [4] (PFH injections), the “autonomic and endocrine effects (PFH injection)” value was “can produce autonomic and endocrine effects”. Besides, in the data set on lateral hypothalamus [5], the “eating response on LH injection” value was “elicit a strong dose-dependent eating response; also recorded: elicited eating in satiated rats”. Besides, the “effect on eating in PVN” value in data set [6] is “relatively ineffective”. Further, the “autonomic and endocrine effects (PVN injection)” value in data set [6] (PVN injections) was “can produce autonomic and endocrine effects”.
As for `N[C@H](CO)C(=O)O` [D-serine], in data set [2] (rat, in vivo), the 7CK induced feeding entry is “dose-dependently antagonized 7CK induced feeding”.
As to `NCCCC(=O)O` [γ-aminobutyric acid], the “effect on eating in PVN” value in data set [6] was “feeding-stimulatory effects”.
Consider `NCC(=O)O` [glycine], for which, in data set [1] (LH pretreatment), the “block by 7-CK of NMDA-elicited eating, after LH pretreatment with glycine” value is “reversed this block”.
For neuropeptide Y, the “effect on eating in PFH” value in data set [4] is “feeding-stimulatory effects”.
On to `C=C(C)[C@H]1CN[C@H](C(=O)O)[C@H]1CC(=O)O` [KA, Kainic acid], for which the “eating response on LH injection” value is on record as “elicit a strong dose-dependent eating response; also recorded: elicited eating in a dose-dependent fashion; also recorded: trigger intense eating” in the data set on lateral hypothalamus [5] and “quantitatively similar eating responses” in the data set on lateral hypothalamus [5] (listed as kainic acid). For the same molecule, the feeding and drinking result in the data set with lateral hypothalamus [7] is “impaired”.
For `NC(=O)N1c2ccccc2C=Cc2ccccc21` [carbamazepine], in the data set on seizure patients, the “weight gain as monotherapy” value was “associated with weight gain”.
As for `CNC[C@H](O)c1ccc(O)c(O)c1` [epinephrine], in data set [4], the “effect on eating in PFH” value was “feeding-suppressive effects”.
Consider `N[C@H](CCCP(=O)(O)O)C(=O)O` [D-AP5], for which, in the data set with NMDA receptors [8], the “eating responses elicited by AMPA” value was “without affecting”, the “eating responses elicited by kainic acid” value is “without affecting” and the “reduction of the 10-gram eating response elicited by NMDA” value was 72-90%. Besides, in the data set on NMDA receptors [9] (in vivo), the “suppression of deprivation-induced eating responses” value was at most 61% and the “suppression of nocturnal eating” value was at most 40%. In addition, in the data set on NMDA receptors [9] (setting [10]), the body weight loss result is “up to 13 grams/day” and the “reduction in daily food intake” value is reported as 65%.
Take `NC[C@H](O)c1ccc(O)c(O)c1` [norepinephrine]: the “effect on eating in PVN” value in [6] is listed as “feeding-stimulatory effects”.
